Laboratory results from paper PMC3771382 (ChemMedChem, 2012).

Tests used:
[1] = target: human GLP-1R (Homo sapiens, UniProt P43220); experiment: RIP1-CRE-Luc luciferase reporter; type: cell-based; details: HEK-GLP-1R cells transfected with RIP1-CRE-Luc; 4 h exposure
[2] = ref [8],[9]; cited from earlier work
[3] = test system: dipeptidyl peptidase IV (DPP-IV); details: ref [8],[9]; cited from earlier work

Chain of human GLP-1R (P43220 24-463): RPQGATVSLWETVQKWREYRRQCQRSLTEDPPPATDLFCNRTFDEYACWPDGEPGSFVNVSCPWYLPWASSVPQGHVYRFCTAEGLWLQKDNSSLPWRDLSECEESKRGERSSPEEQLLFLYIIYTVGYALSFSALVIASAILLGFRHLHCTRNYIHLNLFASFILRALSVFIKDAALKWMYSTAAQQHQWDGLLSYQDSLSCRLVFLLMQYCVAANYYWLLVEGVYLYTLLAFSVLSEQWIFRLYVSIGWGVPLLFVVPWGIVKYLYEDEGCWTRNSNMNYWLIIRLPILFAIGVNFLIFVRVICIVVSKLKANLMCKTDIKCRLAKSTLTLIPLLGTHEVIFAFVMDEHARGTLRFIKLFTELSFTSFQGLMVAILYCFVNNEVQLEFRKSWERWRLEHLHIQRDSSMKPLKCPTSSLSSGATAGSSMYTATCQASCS

Row | Compound | luciferase response (in words) [1] | fraction of secreted GLP-1 surviving intact to the systemic circulation [2] | t1/2, degradation by DPP-IV [3]
1 | CC[C@H](C)[C@H](NC(=O)[C@H](Cc1ccccc1)NC(=O)[C@H](CCC(=O)O)NC(=O)[C@H](CCCCNC(=O)OC[C@H]1O[C@H](n2cnc3cc(C)c(C)cc32)[C@H](O)[C@@H]1OP(=O)(O)O[C@H](C)CNC(=O)CC[C@@]1(C)/C2=C(\C)C3=N/C(=C\C4=NC(=C(/C)C5=N[C@@](C)([C@H](N2)[C@@H]1CC(N)=O)[C@@](C)(CC(N)=O)[C@@H]5CCC(N)=O)/[C@@](C)(CC(N)=O)[C@@H]4CCC(N)=O)C(C)(C)[C@@H]3CCC(N)=O)NC(=O)[C@H](C)NC(=O)[C@H](C)NC(=O)[C@H](CCC(N)=O)NC(=O)CNC(=O)[C@H](CCC(=O)O)NC(=O)[C@H](CC(C)C)NC(=O)[C@H](Cc1ccc(O)cc1)NC(=O)[C@H](CO)NC(=O)[C@H](CO)NC(=O)[C@@H](NC(=O)[C@H](CC(=O)O)NC(=O)[C@H](CO)NC(=O)[C@@H](NC(=O)[C@H](Cc1ccccc1)NC(=O)[C@@H](NC(=O)CNC(=O)[C@H](CCC(=O)O)NC(=O)[C@H](C)NC(=O)[C@@H](N)Cc1c[nH]cn1)[C@@H](C)O)[C@@H](C)O)C(C)C)C(=O)N[C@@H](C)C(=O)N[C@@H](Cc1c[nH]c2ccccc12)C(=O)N[C@@H](CC(C)C)C(=O)N[C@H](C(=O)N[C@@H](CCCNC(=N)N)C(=O)NCC(=O)N[C@@H](CCCNC(=N)N)C(N)=O)C(C)C [compound 1] | concentration-dependent response | – | –
2 | cyanocobalamin [B12] | did not produce any response | – | –
3 | glucagon-like peptide-1 (7–36) amide [GLP-1] | – | 10–15% | 1 to 2 min
